For orientation: pEC50 means −log10 of the EC50, conventionally taken in molar units. Read a high pEC50 as a small EC50. As a reminder, the IC50 is the concentration at which inhibition is half-maximal. A higher IC50 goes with weaker potency in that assay.

For one data set, the system named is BJELR. In words: Response of tumor cell lines to erastin (dose-response). The class given is cell-based, human. How it is done:
(§1) Given that oncogenic RAS activates at least four downstream pathways, analysis was performed to identify which downstream effects were necessary for erastin sensitivity. In certain embodiments, the invention provides that erastin inhibits growth and kills genuine tumor cells with RAS mutations. In other embodiments, the invention provides measures of the dose-response of 29 tumor cell lines to erastin, wherein there is at least 50% inhibition of viability in 18 of the cell lines (Table 4). Numerous sarcoma-derived tumor cell lines were sensitive to erastin, consistent with the fact that erastin was discovered in an engineered tumor cell line created from human fibroblasts.

In another data set the test system is A673. Described as above. The class given is cell-based, human. Here is the method:
as §1

The next data set concerns BJEH. Described as above. The class given is cell-based, human. Here is the method:
as §1

For another data set, the system named is HT1080. The data set is described as above. The class given is cell-based, human. Here is the method: as §1
Data set [1] is described as follows: Stability in human plasma. The class given is in vitro ADME. The following applies: after five hours. How it is done: The stability of erastin in mouse and human liver microsomes and in mouse and human plasma was assessed. In both human and mouse liver microsomes, after 1 hr, ˜30% of erastin was converted to its primary metabolite (the O-de-ethylated product). In both human and mouse plasma, only ˜10% of erastin was lost after five hours. Thus, erastin has sufficient metabolic and plasma stability to be tested in vivo in mice.

In a further data set the test system is MIA PaCa-2 cells. In words: Alamar Blue viability assay. The class given is cell-based. The following applies: Homo sapiens; MIA PaCa-2 (+KRAS). Here is the method:
(§2) Alamar Blue metabolism: 10% Alamar Blue was added to assay plates, which were then incubated for an additional 16 hours. Red fluorescence, resulting from reduction of Alamar Blue, was detected on a Victor3 platereader (ex: 530, em: 590).
(§3) Table 2. Activity of RAS-selective lethal compound erastin in tumor cell lines. IC50 values (ng/mL) are shown using the Alamar Blue viability assay. BJ engineered tumor cells express TERT, LT, ST, and oncogenic RAS. Isogenic RAS^V12 lacking cells are identical but lack HRAS^V12. BJ-DRD cells are derived from BJ cells and contain TERT, oncogenic RAS, a truncated from of p53 (p53DD) that disrupts the tetramerization of endogenous p53, a CDK4(R24C) mutant resistant to inhibition by p16INK4A and p151NK4B (the major negative regulators of CDK4) and cyclin D1. These latter protein substitute for LT. HCT-116, A549, Calu-1, and MIA PaCa-2 are tumor cells derived from cancers (colon, lung, lung and pancreatic, respectively) known to have activating mutations in RAS.

The subject of another data set is BJ-TERT/LT/ST cells. Briefly: Alamar Blue viability assay. The following applies: Homo sapiens; BJ-TERT/LT/ST (lacking HRAS^V12). The class given is cell-based. Here is the method:
as §2, §3

The next data set has as its system HCT-116 cells. In words: Alamar Blue viability assay. Type of data set: cell-based. The following applies: Homo sapiens; HCT-116 (+KRAS). How it is done: as §2, §3
For orientation: The colour change of resazurin is a common sign of viable cells or microbes.

Data set [2] has as its system BJ-TERT/LT/ST/RAS^V12 cells. Briefly: ATP detection. Type of data set: cell-based, human. The following applies: erastin 20 μg/mL for 12 hours. Here is the method:
Cells were seeded in polystyrene 100×20 mm dishes (Falcon/#353003) in 10 mL of media. Three million cells were seeded in each dish for staurosporine (STS) and erastin treatment. Two million cells were seeded in each dish for no treatment and hydrogen peroxide treatment. Cells were treated with staurosporine (1 μM) for 12 hours, with H2O2 (16 mM) for 1.5 hours and erastin (20 μg/mL) for 12 hours. After the incubation, we counted cells using a CiCell analyzer (Beckman). 100,000 cells from each treatment were collected and washed twice in Hank's Salt Solution (10 ml). Next, we suspended cells in 200 μl of Nucleotide Releasing Buffer (BioVision/K254-200 ApoSensor Cell Viability Assay Kit) and incubated at room temperature for 10 minutes. To 10 μl of the above sample, we added 1 μl of ATP Minitoring Enzyme (BioVision/K254-200 ApoSensor Cell Viability Assay Kit) and read the ATP levels of the samples using a luminometer.
ATP levels were measured in BJERL cells treated with nothing (NT), treated with 1 μM of Staurosporine (STS) for 12 hours, with 16 mM of hydrogen peroxide for 1.5 hours and 20 μg/mL of erastin for 12 hours. ATP levels were normalized by number of viable cells.

Another data set relates to VDAC2, VDAC3. Briefly: VDAC isoform levels after erastin treatment (quantitative 2D western). The class given is cell-based, human. From the text: Quantitative western blot of VDAC/eif4E protein ratio in engineered BJ-derived cells. (b) Identification of VDAC isoforms in BJ-TERT/LT/ST/RAS^V12 cells using 2-D electrophoresis. i) VDAC1, VDAC2 and VDAC3 were detected by a rabbit polyclonal VDAC antibody (Abcam/ab3434), ii) VDAC1 was detected by a mouse monoclonal VDAC1 antibody (Calbiochem/529534), iii) VDAC2 was detected by a goat polyclonal VDAC2 antibody (Abcam/ab22170), iv) An illustration of 3 isoforms of VDAC separated by the 2-D gel electrophoresis. (c) BJ-TERT/LT/ST/RAS^V12 cells were treated with erastin for the indicated time and levels of each VDAC isoform determined by quantitative 2D western. (d,e) Infection with VDAC3 shRNA protects erastin-treated cells. 293T cells were transfected with shRNA-plasmid construct using FuGene and viral supernatant transferred to HT1080 cells, and treated with erastin dilutions and viability measured using Trypan Blue exclusion. […] (f) Quantitative RT-PCR measurements of mRNA levels of the 3 VDAC isoforms after infection with shVDAC3. Knockdown was determined by normalizing to the levels in the shGFP-infected control. […] (g) Mitochondria were purified from yeast expressing murine VDAC3 in place of yeast VDAC, and the rate of NADH uptake determined in the presence or absence of erastin, or in shocked mitochondria in which the outer membrane was disrupted. […]

pEC50: −log10 of the molar value. In brackets after ≈: the same amount, converted by molar mass. Bounds are passed on as bounds.

With `CCOc1ccccc1-n1c(C(C)N2CCN(C(=O)COc3ccc(Cl)cc3)CC2)nc2ccccc2c1=O` (stereo not shown) [erastin, 2-(1-{4-[2-(4-Chloro-phenoxy)-acetyl]-piperazin-1-yl}-ethyl)-3-(2-ethoxy-phenyl)-3H-quinazolin-4-one], the “Erastin Sensitivity (maximum percent killing, as fraction)” value with BJELR (BJ-TERT/LT/ST/RAS^V12) is reported as 1.00; in the data set on A673 (A673), 0.54; in the data set with BJEH (BJ-TERT), 0.22; in the data set on HT1080 (HT 1080), 0.98. Moreover, the Max % killing in the data set with BJELR (BJELR, foreskin fibroblasts w/TERT, LT, ST, RAS) is 100%; in the data set with A673 (A673, Ewing sarcoma) it was 54%; in the data set on BJEH (BJEH, foreskin fibroblast w/TERT), 22%; in the data set on HT1080 (HT1080, Fibrosarcoma), 98%. In addition, the pEC50 with BJELR (Homo sapiens, BJeLR) was 5.22; with A673 (Homo sapiens, A673), 4.52; in the data set on BJEH (Homo sapiens, BJeH), 5.00; with HT1080 (Homo sapiens, HT-1080, HT1080), 5.70. Further, the compound lost in data set [1] is on record as ~10%. For the same compound, the IC50 with MIA PaCa-2 cells was 5 µg/mL (≈ 9.14 µM); with BJ-TERT/LT/ST cells it was > 20 µg/mL; with HCT-116 cells, > 20 µg/mL. Besides, in [2], the “ATP levels per viable cell” value was “decreased modestly”. In addition, the VDAC3 protein level entry in the data set on VDAC2, VDAC3 (after 8 hours of erastin treatment) is “no longer detectable”. Besides, the VDAC2 protein level result in the data set on VDAC2, VDAC3 (after 10 hours of erastin treatment) is “undetectable”.
